Data taken from patent US12421294B2, “Truncated epiderimal growth factor receptor (EGFRt) for transduced t cell selection” (City of Hope, priority 2009, dated 2025).

Experiments:
[1] = system: CD19CAR^+EGFRt^+IMPDH2dm^+ Line E cells; assay: MPA resistance culture, IMPDH2dm-expressing Line E cells; assay type: cell-based, human; details: 1 uM MPA
[2] = system: control T cell line; assay: MPA resistance culture, control T cells without IMPDH2dm; assay type: cell-based, human; details: 1 uM MPA, control T cell line lacking IMPDH2dm

`COc1c(C)c2c(c(O)c1C/C=C(\C)CCC(=O)O)C(=O)OC2` [MPA, mycophenolic acid] was tested, and the “survival and/or proliferation in MPA” value [1] was “not inhibited” and the “survival and/or proliferation in MPA” value [2] was “inhibition”.
